# From patent publication US9782424B2, “Synergistic combination comprising avermectins and a NSAID for tumor inhibition” (Ectin Research AB, priority 2011, dated 2017)
# Where “and” joins values, the source holds several entries; their conditions need not be identical. Identical values can stand only once.
# Assays:
# [1] = test system: human urinary bladder cancer cells; test: Tryphan blue exclusion viability; assay type: cell-based; settings: compared to untreated medium control (FIG. 3)
# Protocol: The effect of Ivermectin, selamectin, abamectin alone, or in combination with ketoconazole, albendazole, ibuprofen, diclofenac and celecoxib on the morphology of cultured human tumor cells was studied. The effect of ivermectin in the presence of increasing concentration of ivermectin was also investigated. Cells were grown into sub-confluence and then sub-cultured into 12 and 24 well plates (Sarstedt, Falcon/BD) for morphology studies, or in 96 well plates (Sarstedt, Falcon/BD) for proliferation studies. Viability of urinary bladder cells was studied using the tryphan blue exclusion method (Freshney R. Culture of animal cells: A manual of basic techniques. New York: Alan R Liss Inc; 1987).
# [2] = test system: urinary bladder cell line (UM-UC-3); test: XTT-assay proliferation rate, urinary bladder cell line; assay type: cell-based, human; settings: for Proliferation rate compared to untreated medium control: UM-UC-3 (Table 3); for Proliferation rate in per cent compared to untreated medium control: UM-UC-3
# Protocol: Commercially available human tumor cell lines were purchased from ATCC (ATCC/LGC-standards, Borás, Sweden). […] Briefly, ampoules of frozen cells were thawed by submerging into a 37° C. water bath for 45 s. […] With supernatant discarded, cell pellets were further resuspended with 5 ml complete medium into 25 cm^2 cell culture flasks (Cell+, Sarstedt, Nümbrecht, Germany). Tumor cells were cultured until sub-confluence and further sub-cultured with Trypsin (0.5%), EDTA (0.2%) solution (T4174, TE-10x, Sigma) in sterile sodium chloride. Culture media was changed two-three times a week. Culture flasks (Cell+, Sarstedt, Nümbrecht, Germany) and culture plates (Falcon/BD, Franklin Lakes, N.J., USA) were used for experimental set-ups. Cells were regularly monitored using an inverted microscope connected to a digital photo equipment (Axiovert 25 and Axiovision, Zeiss, Carl Zeiss AG, Germany) (FIG. 1). Described culture techniques and equipment have been used extensively in the laboratory
# The proliferation rates of the different human tumor cell lines were studied using a method based on the conversion of a sodium salt (XTT-assay, Sigma) into a stable orange color that could be analyzed in a spectrophotometer. […] The color change was measured using a 96-well plate reader with software to calculate the absorbance at 450 nm (V-max/Softmax Pro, Molecular Devices, USA).
# (§1) Increasing concentrations of substance ivermectin was added with an 8-channel pipette (Titertek, Kem-En-Tec, Taastrup, Denmark) together with sterile pipette tips (Molecular Bioproducts, San Diego, Calif., USA). Cell cultures including active substances were incubated for 24 hours (and 96 hours). Untreated wells including culture medium only served as untreated controls. The XTT-assay substrate was added and after gentle agitation using a micro plate shaker, absorbencies at 450 and 650 nm were measured. Levels from medium were subtracted and compared with control wells, using culture medium only.
# [3] = test system: colorectal cell line (HT29); test: XTT-assay proliferation rate, colorectal cell line HT29; assay type: cell-based, human
# Protocol: Commercially available human tumor cell lines were purchased from ATCC (ATCC/LGC-standards, Borás, Sweden). Cell lines from urinary bladder (UM-UC-3, #CRL-1749), colorectal carcinoma (Colo205, #CCL-222 and HT29, #HTB-38), prostate carcinoma (LNCaP, #CRL-1740) and breast carcinoma (ZR-75-1, #CRL-1500) were purchased and stored in liquid nitrogen. Cells were cultured in Roswell Park Memorial Institute media (RPMI-1640) or minimum essential medium with Earl's salts (EMEM) supplemented with 10% Foetal calf serum (FCS, Sigma) and cultured using a 37° C. cell culture incubator (Forma Scientific, NinoLab, Kungsbacka, Sweden) with 5% CO2 humidified atmosphere. Tumor cell lines were handled aseptically using a laminar airflow (LAF) bench (Holten 2448, Ninolab, Sweden) and stored in a liquid nitrogen tank and were initiated in culture as previously described (Falk P. Experimental models of the peritoneal environment: Effects of TGF-beta and Hyaluronan. Göteborg: University of Gothenburg; 2008). Briefly, ampoules of frozen cells were thawed by submerging into a 37° C. water bath for 45 s. Cells were resuspended in 10 ml of preheated RPMI-1640 with 10% FCS and centrifuged in 260 g for 10 min. With supernatant discarded, cell pellets were further resuspended with 5 ml complete medium into 25 cm^2 cell culture flasks (Cell+, Sarstedt, Nümbrecht, Germany). Tumor cells were cultured until sub-confluence and further sub-cultured with Trypsin (0.5%), EDTA (0.2%) solution (T4174, TE-10x, Sigma) in sterile sodium chloride. Culture media was changed two-three times a week. Culture flasks (Cell+, Sarstedt, Nümbrecht, Germany) and culture plates (Falcon/BD, Franklin Lakes, N.J., USA) were used for experimental set-ups. Cells were regularly monitored using an inverted microscope connected to a digital photo equipment (Axiovert 25 and Axiovision, Zeiss, Carl Zeiss AG, Germany) (FIG. 1). Described culture techniques and equipment have been used extensively in the laboratory
# The proliferation rates of the different human tumor cell lines were studied using a method based on the conversion of a sodium salt (XTT-assay, Sigma) into a stable orange color that could be analyzed in a spectrophotometer. The color change is proportional to the mitochondrial dehydrogenase activity resulting in an effective technique for measuring cell toxicity (Roehm N W, Rodgers G H, Hatfield S M, Glasebrook A L. An improved colorimetric assay for cell proliferation and viability utilizing the tetrazolium salt XTT. J Immunol Methods 1991;142(2):257-65) or cell proliferation. The color change was measured using a 96-well plate reader with software to calculate the absorbance at 450 nm (V-max/Softmax Pro, Molecular Devices, USA). Cells were cultured until approx 50% confluence and then pre-incubated for 24 h with RPMI-1640 or EMEM containing 1% FCS only. RPMI 1640 and EMEM without phenol red was used during the experiments to reduce the red color background signal in the XTT-assay.
# as §1, with “Prior to the experimental start all cells were gently washed once with RPMI 1640 and EMEM with 1% FCS. Increasing” for “Increasing”
substance,measurement,setting,value
"22,23-dihydroavermectin B1a+22,23-dihydroavermectin B1b [ivermectin]",Tryphan blue exclusion (viability),[1],affected cells in a dose-dependent manner
same,Proliferation rate compared to untreated medium control,[2]; IVM 1 μmol/L alone,99 ± 1%
same,Proliferation rate compared to untreated medium control,[2]; IVM 10 μmol/L alone,105 ± 3%
same,Proliferation rate compared to untreated medium control,[2]; IVM 100 μmol/L alone,90±1%
same,Proliferation rate compared to untreated medium control,"[2]; IVM 100 μmol/L alone, listed as IVM",90 ± 1%
same,Proliferation rate in per cent compared to untreated medium control,[2]; ivermectin 10e-9 mol/L,100 ± 3%
same,Proliferation rate in per cent compared to untreated medium control,[2]; ivermectin 10e-8 mol/L,96 ± 5%
same,Proliferation rate in per cent compared to untreated medium control,[2]; ivermectin 10e-7 mol/L,95 ± 9%
same,Proliferation rate in per cent compared to untreated medium control,[2]; ivermectin 10e-6 mol/L,91 ± 3%
same,Proliferation rate in per cent compared to untreated medium control,[2]; ivermectin 10e-5 mol/L,34±8% and 34 ± 6%
same,Proliferation rate in per cent compared to untreated medium control,[2]; ivermectin 10e-4 mol/L,34±3%
same,Proliferation rate in per cent compared to untreated medium control,[3]; ivermectin 10e-9 mol/L,109 ± 14%
same,Proliferation rate in per cent compared to untreated medium control,[3]; ivermectin 10e-8 mol/L,112 ± 12%
same,Proliferation rate in per cent compared to untreated medium control,[3]; ivermectin 10e-7 mol/L,106 ± 9%
same,Proliferation rate in per cent compared to untreated medium control,[3]; ivermectin 10e-6 mol/L,91 ± 5%
same,Effect on proliferation rate,[3]; ivermectin 100 μM,decreased proliferation rate
same,Proliferation rate in per cent compared to untreated medium control,[3]; ivermectin 10e-5 mol/L,85±11%
same,Proliferation rate in per cent compared to untreated medium control,[3]; ivermectin 10e-4 mol/L,5±1%
